# Measurements as given in patent US10435361B2, “Kinase inhibitors” (Topivert Pharma Limited, priority 2013, dated 2019).
# pIC50: −log10 of the molar value. Where two headings read alike, the source gives them in different places.
# Key:
# PBMCs [1] = assay: IL-2 and IFN gamma release in CD3/CD28 stimulated PBMC cells; assay type: cell-based; conditions: Homo sapiens, assay (c)
# In short: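 Healthy-donor PBMCs, density-gradient isolated, stimulated on plates pre-coated with anti-CD3 (0.3 μg/mL) and anti-CD28 (3 μg/mL) antibodies, with compound, for 3 days under standard culture conditions. IC50 derived from the dose-response curve.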
# PBMCs [2] = assay: Cell mitosis assay in PBMCs; assay type: cell-based; conditions: Homo sapiens, PBMC, 5 μg/mL
# In short: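 Human PBMCs from healthy donors, density-gradient isolated, stimulated with 2% PHA 48 h, then exposed 20 h to test compounds; demecolcine 0.1 μg/mL added 2 h before harvest. Fixed/permeabilised cells stained for phospho-histone H3 and propidium iodide; mitotic lymphocytes counted by flow cytometry.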
# HT29 cells = assay: IL-1β-induced IL-8 release in HT29 cells; assay type: cell-based; conditions: Homo sapiens, HT-29, assay (d), read-out: IC50 Values for Inhibition of Cytokine Release HT29 cells IL-8
# Method: HT29 cells, a human colon adenocarcinoma cell line, are plated in a 96 well plate (24 hr) and pre-treated with compounds at the desired concentration for 2 hours before addition of 5 ng/mL of IL-1β (Abcam) for 24 hours. Supernatants are harvested for IL-8 quantification by Sandwich ELISA (Duo-set, R&D System). The IC50 is determined from the dose response curve.
# d-U937 cells = assay: LPS-induced TNFα/IL-8 release in d-U937 cells; assay type: cell-based; conditions: Homo sapiens, dU937, assay (aa)
# Method: U937 cells, a human monocytic cell line, are differentiated to macrophage-type cells by incubation with phorbol myristate acetate (PMA; 100 ng/mL) for 48 to 72 hr. Cells are pre-incubated with final concentrations of test compound for 2 hr and are then stimulated with 0.1 μg/mL of LPS (from E. Coli: 0111:B4, Sigma) for 4 hr. The supernatant is collected for determination of TNFα and IL-8 concentrations by sandwich ELISA (Duo-set, R&D systems). […] The relative 50% effective concentration (REC50) is determined from the resultant concentration-response curve. The inhibition of IL-8 production is calculated at each concentration of test compound by comparison with vehicle control.
# PBMCs [3] = assay: LPS-induced TNFα/IL-8 release in PBMC cells; assay type: cell-based; conditions: Homo sapiens, assay (b), read-out: IC50 Values for Inhibition of Cytokine Release PBMCs IL-8
# In short: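 Healthy-donor PBMCs isolated by density gradient were pretreated with compound for 2 h, then stimulated with 1 ng/mL LPS (E. coli 0111:B4) for 24 h at 37° C., 5% CO2. IL-8 and TNFα in supernatants measured by sandwich ELISA.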
# BDF1 mice = assay: TNBS-induced colitis in mice; assay type: in vivo; conditions: conducted over 2 days; vehicle corn oil/transcutol/maisine/cremophor ELP
# Method: Non-fasted, 10-12 week old, male BDF1 mice are dosed by oral gavage twice daily with either vehicle (5 mL/kg), reference item (Budesonide 2.5 mg/kg) or test compound (1 or 5 mg/kg) one day before (Day −1) stimulation of the inflammatory response by treatment with 2,4,6-trinitrobenzenesulphonic acid (TNBS) (15 mg/mL in 50% ethanol/50% saline). On Day 0 of the study TNBS (200 μL) is administered intra-colonically via a plastic catheter with BID dosing of the vehicle, reference or test compound continuing for 2 or 4 days. During the study, animals are weighed every day and stool observations are made and recorded as a score, based on stool consistency. At the time of sacrifice on Day 2 (or Day 4), the large intestine is removed and the length and weight recorded. Sections of the colon are taken for histopathology scoring to determine disease severity.
# [4] = Hydrolytic stability study (DMSO/water 3:1, 60° C.); assay type: physicochemical
# Method: Chemical stability of compounds of the invention was assessed in a mixture of DMSO and water (3:1) at a test compound concentration of 1 mg/mL
# Agilent, Waters X-Select C18, 2.5 μm, 4.6×30 mm column, 4 min method, 5-95%
# MeCN/water (0.1% formic acid).
# Column Oven Temperature 40° C.
# Sample Preparation • A 1.0 mg sample of test compound was dissolved in 750 μL of DMSO. Water (250 μL) was added slowly, ensuring no precipitation occurred.
# Recording Stability • A 50 μL aliquot of the test solution was removed and analysed in duplicate by 5 μL HPLC injections. The peak area for the test compound was recorded following manual integration of the corresponding UV trace. • The test solution was heated to 60° C., with stirring, and 50 μL aliquots removed for HPLC analysis at 5 and 24 h timepoints.
# [5] = read-out: IC50 Values for Inhibition of Cytokine Release PBMCs IFNγ
# [6] = read-out: IC50 Values for Inhibition of Cytokine Release PBMCs IL-2
# [7] = method: relative to 10 μg/mL BIRB796 (REC50), read-out: IC50 Values for Inhibition of Cytokine Release dU937 cells TNFα
# [8] = read-out: IC50 Values for Inhibition of Cytokine Release dU937 cells IL-8
pIC50 (HT29 cells),pIC50 (d-U937 cells; [7]),pIC50 (d-U937 cells; [8]),"decomposition in hydrolytic stability study ([4]; 1 mg/mL in DMSO:water (3:1), 60° C., 5 and 24 h)","% Parent Remaining ([4]; DMSO/water 3:1, 0 min)","% Parent Remaining ([4]; DMSO/water 3:1, 60° C., 300 min)","% Parent Remaining ([4]; DMSO/water 3:1, 60° C., 1440 min)",SMILES,pIC50 (PBMCs [1]; [5]),pIC50 (PBMCs [1]; [6]),inhibition at 5 µg/mL (PBMCs [2]),pIC50 (PBMCs [3]),activity in TNBS-induced colitis (histopathology analysis) (BDF1 mice)
8.17,9.30,8.85,–,–,–,–,"COc1cc(Nc2nccc(Oc3ccc(NC(=O)Nc4cc(C(C)(C)C)cc(NS(C)(=O)=O)c4OC)c4ccccc34)n2)cc(S(=O)(=O)C2CC2)c1 [Example 5, N-(5-(tert-Butyl)-3-(3-(4-((2-((3-(cyclopropylsulfonyl)-5-methoxyphenyl)amino)pyrimidin-4-yl)oxy)naphthalen-1-yl)ureido)-2-methoxyphenyl)methanesulfonamide]",7.99,6.82,44.9%,8.62,–
8.34,9.52,9.10,–,–,–,–,"COCCOCCOCCOc1cc(Nc2nccc(Oc3ccc(NC(=O)Nc4cc(C(C)(C)C)cc(NS(C)(=O)=O)c4OC)c(Cl)c3Cl)n2)cc(OC)c1 [Example 10, N-(5-(tert-Butyl)-3-(3-(2,3-dichloro-4-((2-((3-methoxy-5-(2-(2-(2-methoxyethoxy)ethoxy)-ethoxy)phenyl)amino)pyrimidin-4-yl)oxy)phenyl)ureido)-2-methoxyphenyl)-methanesulfonamide]",8.36,8.05,70.2%,8.64,–
8.03,8.92,8.85,–,–,–,–,"COCCOCCOCCOc1cc(Nc2cc(Oc3ccc(NC(=O)Nc4cc(C(C)(C)C)cc(NS(C)(=O)=O)c4OC)c4ccccc34)ccn2)cc(OC)c1 [Example 11, N-(5-(tert-Butyl)-2-methoxy-3-(3-(4-((2-((3-methoxy-5-(2-(2-(2-methoxyethoxy)ethoxy)-ethoxy)phenyl)amino)pyridin-4-yl)oxy)naphthalen-1-yl)ureido)phenyl)-methanesulfonamide]",7.75,7.13,33.5%,8.59,–
8.52,9.30,9.22,–,–,–,–,"COCCOCCOCCOCCOCCOCCOCCOc1cc(Nc2nccc(Oc3ccc(NC(=O)Nc4cc(C(C)(C)C)cc(NS(C)(=O)=O)c4OC)c4ccccc34)n2)cc(OC)c1 [Example 14, N-(3-(3-(4-((2-((3-(2,5,8,11,14,17,20-Heptaoxadocosan-22-yloxy)-5-methoxyphenyl)amino)-pyrimidin-4-yl)oxy)naphthalen-1-yl)ureido)-5-(tert-butyl)-2-methoxyphenyl)-methanesulfonamide]",7.71,6.74,49.8%,8.77,–
8.29,–,8.85,–,–,–,–,"COCCOCCOCCOc1cc(Nc2nccc(Oc3ccc(NC(=O)Nc4cc(C(C)(C)C)cc(NS(C)(=O)=O)c4OC)c4ccccc34)n2)cc(OC(F)F)c1 [Example 17, N-(5-(tert-Butyl)-3-(3-(4-((2-((3-(difluoromethoxy)-5-(2-(2-(2-methoxyethoxy)ethoxy)-ethoxy)phenyl)amino)pyrimidin-4-yl)oxy)naphthalen-1-yl)ureido)-2-methoxyphenyl)-methanesulfonamide]",8.09,7.18,37%,8.74,–
8.68,–,–,–,–,–,–,"COCCOCCOCCOc1cc(Nc2cc(Oc3ccc(NC(=O)Nc4cc(C(C)(C)C)cc(C(N)=O)c4OC)c4ccccc34)ccn2)cc(OC)c1 [Example 34, 5-(tert-Butyl)-2-methoxy-3-(3-(4-((2-((3-methoxy-5-(2-(2-(2-methoxyethoxy)ethoxy)ethoxy)phenyl)amino)pyridin-4-yl)oxy)naphthalen-1-yl)ureido)benzamide]",8.12,7.20,40.4%,8.52,displayed substantial activity
7.67,–,–,–,–,–,–,"C#Cc1cc(Nc2nccc(Oc3ccc(NC(=O)Nc4cc(C(C)(C)C)cc(NS(C)(=O)=O)c4OC)c4ccccc34)n2)cc(C(=O)N[C@@H](C)CN2CCOCC2)c1 [Example 57, (S)-3-((4-((4-(3-(5-(tert-butyl)-2-methoxy-3-(methylsulfonamido)phenyl)ureido)-naphthalen-1-yl)oxy)pyrimidin-2-yl)amino)-5-ethynyl-N-(1-morpholinopropan-2-yl)benzamide]",7.13,6.85,42.1%,8.44,–
7.97,–,–,–,–,–,–,"COCCOCCOCCOc1cc(Nc2nccc(Oc3ccc(NC(=O)Nc4cc(C(C)(C)C)cc(NS(C)(=O)=O)c4OC)c4ccccc34)n2)cc(OC)c1Cl [Example 58, N-(5-(tert-Butyl)-3-(3-(4-((2-((4-chloro-3-methoxy-5-(2-(2-(2-methoxyethoxy)ethoxy)ethoxy)-phenyl)amino)pyrimidin-4-yl)oxy)naphthalen-1-yl)ureido)-2-methoxyphenyl)-methanesulfonamide]",7.77,6.86,41.7%,8.59,–
6.84,–,–,–,–,–,–,"C#Cc1cc(Nc2cc(Oc3ccc(NC(=O)Nc4cc(NS(C)(=O)=O)cc(C(C)(C)C)c4)c4ccccc34)ccn2)cc(C(=O)NCCN2CCOCC2)c1 [Example 65, 3-((4-((4-(3-(3-(tert-Butyl)-5-(methylsulfonamido)phenyl)ureido)naphthalen-1-yl)oxy)-pyridin-2-yl)amino)-5-ethynyl-N-(2-morpholinoethyl)benzamide]",7.46,6.88,51.1%,8.40,–
7.88,–,–,–,–,–,–,"COc1cc(Nc2cc(Oc3ccc(NC(=O)Nc4cc(C(C)(C)C)cc(NS(C)(=O)=O)c4OC)c4ccccc34)ccn2)cc(C(=O)NCCN2CCN(C)CC2)c1 [Example 79, 3-((4-((4-(3-(5-(tert-Butyl)-2-methoxy-3-(methylsulfonamido)phenyl)ureido)naphthalen-1-yl)oxy)pyridin-2-yl)amino)-5-methoxy-N-(2-(4-methylpiperazin-1-yl)ethyl)benzamide]",8.23,6.55,54.4%,8.47,displayed substantial activity
–,–,–,underwent substantial decomposition,100%,82%,36%,"C#Cc1cc(Nc2nccc(Oc3ccc(NC(=O)Nc4cc(C(C)C)nn4-c4ccc(C)cc4)c4ccccc34)n2)cc(C(=O)NCCN2CCOCC2)c1 [Reference Compound B, 3-ethynyl-5-((4-((4-(3-(3-isopropyl-1-(p-tolyl)-1H-pyrazol-5-yl)ureido)naphthalen-1-yl)oxy)pyrimidin-2-yl)amino)-N-(2-morpholinoethyl)benzamide, reference compound]",–,–,–,–,–
